Eight compounds from patent publication US20220289794A1, “SYNTHETIC ANTIMICROBIAL PEPTIDES” (priority 2019, published 2022) can be followed below.

Structures are written as SMILES. Values after ≈ are worked out from the molar mass of the structure shown. Non-standard residues stand in square brackets, D forms with d. Residues, ends and D or L forms follow the SMILES beside them. 2Nal = N[C@@H](Cc1ccc2ccccc2c1)C(=O)O; d2Nal = N[C@H](Cc1ccc2ccccc2c1)C(=O)O

The test system of data set [1] is Methicillin-resistant Staphylococcus aureus MRSA (ATCC BAA-1556). Conditions: ATCC BAA-1556.
The test system of a further data set is S. aureus ATCC 29213. Conditions: ATCC 29213.
Data set [2] has as its system Pseudomonas aeruginosa (ATCC 27883). Conditions: ATCC 27883.
Data set [3] deals with Escherichia coli (ATCC 25922). Conditions: ATCC 25922.
A short description of a further data set: in vitro. Conditions: human, fresh human red blood cells (washed), pH 7.4.

By HC50 is commonly meant the concentration giving 50% haemolysis.

As to `N=C(N)NCCC[C@H]1NC(=O)[C@H](Cc2ccc3ccccc3c2)NC(=O)[C@H](Cc2ccc3ccccc3c2)NC(=O)[C@@H](Cc2c[nH]c3ccccc23)NC(=O)[C@@H](CCCNC(=N)N)NC(=O)[C@@H](CCCNC(=N)N)NC(=O)[C@@H](CCCNC(=N)N)NC(=O)[C@@H](CCCNC(=N)N)NC1=O` [IFX-123, c[arg-arg-arg-arg-arg-trp-NaI-NaI]] (cyclo([2Nal][2Nal][dR][dR][dR][dR][dR][dW])), in data set [1], the “MIC MRSA ATCC BAA-1556” value was 3.1 µg/mL (≈ 2.28 µM). In addition, the “MIC S. aureus ATCC 29213” value against S. aureus ATCC 29213 is 3.1 µg/mL (≈ 2.28 µM). Moreover, in data set [2], the “MIC P. aeruginosa ATCC 27883” value was determined as 16 µg/mL (≈ 11.8 µM). For the same compound, the “MIC E. coli ATCC 25922” value in data set [3] worked out at 16 µg/mL (≈ 11.8 µM). The compound also had an HC50 at 0.5 h in “in vitro” of 190 µg/mL.

Consider `N=C(N)NCCC[C@H]1NC(=O)[C@@H](CCCNC(=N)N)NC(=O)[C@@H](CCCNC(=N)N)NC(=O)[C@@H](Cc2ccc3ccccc3c2)NC(=O)[C@@H](Cc2ccc3ccccc3c2)NC(=O)[C@@H](Cc2c[nH]c3ccccc23)NC(=O)[C@@H](CCCNC(=N)N)NC(=O)[C@@H](CCCNC(=N)N)NC1=O` [IFX-124, c[arg-arg-arg-arg-arg-trp-naI-naI]] (cyclo([d2Nal][d2Nal][dR][dR][dR][dR][dR][dW])), for which the “MIC MRSA ATCC BAA-1556” value in data set [1] came to 3.1 µg/mL (≈ 2.28 µM). Also, the “MIC S. aureus ATCC 29213” value in the data set on S. aureus ATCC 29213 stood at 3.1 µg/mL (≈ 2.28 µM). The “MIC P. aeruginosa ATCC 27883” value in data set [2] came to 16 µg/mL (≈ 11.8 µM). The “MIC E. coli ATCC 25922” value in data set [3] turned out to be 16 µg/mL (≈ 11.8 µM). The HC50 at 0.5 h in “in vitro” is 410 µg/mL.

Take `N=C(N)NCCC[C@@H]1NC(=O)[C@H](CCCNC(=N)N)NC(=O)[C@@H](Cc2ccc3ccccc3c2)NC(=O)[C@@H](Cc2ccc3ccccc3c2)NC(=O)[C@H](Cc2c[nH]c3ccccc23)NC(=O)[C@@H](CCCNC(=N)N)NC(=O)[C@@H](CCCNC(=N)N)NC(=O)[C@H](CCCNC(=N)N)NC1=O` [IFX-125, c[Arg-Arg-Arg-arg-arg-Trp-naI-naI]] (cyclo(RRR[dR][dR]W[d2Nal][d2Nal])): the “MIC MRSA ATCC BAA-1556” value in data set [1] came to 3.1 µg/mL (≈ 2.28 µM). Besides, the “MIC S. aureus ATCC 29213” value in the data set on S. aureus ATCC 29213 worked out at 3.1 µg/mL (≈ 2.28 µM). The “MIC P. aeruginosa ATCC 27883” value in data set [2] is 32 µg/mL (≈ 23.5 µM). Further, in data set [3], the “MIC E. coli ATCC 25922” value is 16 µg/mL (≈ 11.8 µM). Moreover, the HC50 at 0.5 h in the data set “in vitro” turned out to be 485 µg/mL.

For the compound `NCCCC[C@@H]1NC(=O)[C@H](CCCCN)NC(=O)[C@H](CCCCN)NC(=O)[C@H](Cc2ccc3ccccc3c2)NC(=O)[C@H](Cc2ccc3ccccc3c2)NC(=O)[C@H](Cc2c[nH]c3ccccc23)NC(=O)[C@H](CCCCN)NC1=O` [IFX-126, c[Lys-Lys-Lys-Lys-Trp-NaI-NaI]] (cyclo([2Nal][2Nal]KKKKW)), in data set [1], the “MIC MRSA ATCC BAA-1556” value was 12.5 µg/mL (≈ 11.4 µM). The “MIC S. aureus ATCC 29213” value against S. aureus ATCC 29213 amounted to 12.5 µg/mL (≈ 11.4 µM). Further, the “MIC P. aeruginosa ATCC 27883” value in data set [2] turned out to be 128 µg/mL (≈ 117 µM). Besides, in data set [3], the “MIC E. coli ATCC 25922” value worked out at 64 µg/mL (≈ 58.5 µM). In the data set “in vitro”, this compound showed an HC50 at 0.5 h of 610 µg/mL.

Regarding `NCCCC[C@@H]1NC(=O)[C@H](CCCCN)NC(=O)[C@H](CCCCN)NC(=O)[C@@H](Cc2ccc3ccccc3c2)NC(=O)[C@@H](Cc2ccc3ccccc3c2)NC(=O)[C@H](Cc2c[nH]c3ccccc23)NC(=O)[C@H](CCCCN)NC1=O` [IFX-127, c[Lys-Lys-Lys-Lys-Trp-naI-naI]] (cyclo(KKKKW[d2Nal][d2Nal])), the “MIC MRSA ATCC BAA-1556” value in data set [1] worked out at 6.2 µg/mL (≈ 5.67 µM). In addition, the “MIC S. aureus ATCC 29213” value in the data set on S. aureus ATCC 29213 worked out at 6.2 µg/mL (≈ 5.67 µM). The “MIC P. aeruginosa ATCC 27883” value in data set [2] was 128 µg/mL (≈ 117 µM). Besides, in data set [3], the “MIC E. coli ATCC 25922” value turned out to be 64 µg/mL (≈ 58.5 µM). In “in vitro”, this compound displayed an HC50 at 0.5 h of 540 µg/mL.

Consider `NCCCC[C@@H]1NC(=O)[C@@H](CCCCN)NC(=O)[C@H](CCCCN)NC(=O)[C@@H](CCCCN)NC(=O)[C@@H](Cc2ccc3ccccc3c2)NC(=O)[C@@H](Cc2ccc3ccccc3c2)NC(=O)[C@H](Cc2c[nH]c3ccccc23)NC1=O` [IFX-128, c[lys-Lys-lys-Lys-Trp-naI-naI]] (cyclo(KW[d2Nal][d2Nal][dK]K[dK])), for which the “MIC MRSA ATCC BAA-1556” value in data set [1] amounted to 6.2 µg/mL (≈ 5.67 µM). The “MIC S. aureus ATCC 29213” value with S. aureus ATCC 29213 was 6.2 µg/mL (≈ 5.67 µM). For the same compound, in data set [2], the “MIC P. aeruginosa ATCC 27883” value is 64 µg/mL (≈ 58.5 µM). The “MIC E. coli ATCC 25922” value in data set [3] stood at 64 µg/mL (≈ 58.5 µM). In the data set “in vitro”, the concentration for 50% haemolysis (HC50) at 0.5 h came to 590 µg/mL.

Consider `NCCCC[C@@H]1NC(=O)[C@@H](CCCCN)NC(=O)[C@H](CCCCN)NC(=O)[C@@H](Cc2ccc3ccccc3c2)NC(=O)[C@@H](Cc2ccc3ccccc3c2)NC(=O)[C@H](Cc2c[nH]c3ccccc23)NC(=O)[C@@H](CCCCN)NC1=O` [IFX-129, c[Lys-lys-Lys-lys-Trp-naI-naI]] (cyclo(K[dK]K[dK]W[d2Nal][d2Nal])), for which the “MIC MRSA ATCC BAA-1556” value in data set [1] was determined as 3.1 µg/mL (≈ 2.84 µM). The “MIC S. aureus ATCC 29213” value with S. aureus ATCC 29213 worked out at 3.1 µg/mL (≈ 2.84 µM). In addition, in data set [2], the “MIC P. aeruginosa ATCC 27883” value is 64 µg/mL (≈ 58.5 µM). Further, the “MIC E. coli ATCC 25922” value in data set [3] amounted to 64 µg/mL (≈ 58.5 µM). Moreover, in the data set “in vitro”, the HC50 at 0.5 h stood at 420 µg/mL.

In the case of `NCCCC[C@H]1NC(=O)[C@@H](CCCCN)NC(=O)[C@@H](CCCCN)NC(=O)[C@@H](Cc2ccc3ccccc3c2)NC(=O)[C@@H](Cc2ccc3ccccc3c2)NC(=O)[C@@H](Cc2c[nH]c3ccccc23)NC(=O)[C@@H](CCCCN)NC1=O` [IFX-130, c[lys-lys-lys-lys-trp-naI-naI]] (cyclo([d2Nal][d2Nal][dK][dK][dK][dK][dW])), the “MIC MRSA ATCC BAA-1556” value in data set [1] is 12.5 µg/mL (≈ 11.4 µM). In addition, the “MIC S. aureus ATCC 29213” value against S. aureus ATCC 29213 worked out at 6.2 µg/mL (≈ 5.67 µM). Besides, in data set [2], the “MIC P. aeruginosa ATCC 27883” value amounted to 128 µg/mL (≈ 117 µM). Besides, in data set [3], the “MIC E. coli ATCC 25922” value is 128 µg/mL (≈ 117 µM). For the same compound, the HC50 at 0.5 h in the data set “in vitro” is 880 µg/mL.
